Laboratory results as given in EP0203559A1, “Penicillin derivative containing naphthyridine” (AUSONIA FARMACEUTICI S.r.l., priority 1985, dated 1986).
≈ marks a conversion by molar mass, not a printed value.

Experiments:
Citrob. freundii = assay: In vitro antibacterial activity (MIC), compound I versus 1:1 combination with amoxicillin (Table 3); assay type: cell-based; conditions: Citrobacter freundii, 2 strains, average value, compound I alone
Proteus rettgeri = assay: as above; assay type: cell-based; conditions: Providencia rettgeri, 1 strain, compound I alone
[1] = test system: tryptic enzymes (trypsin, pepsin, etc.); assay: Stability to tryptic enzymes; assay type: in vitro ADME
Staph. aureus CH1 = assay: Minimal inhibitory concentrations (MIC) against amoxicillin resistant bacteria (Table 1); assay type: cell-based; conditions: Staphylococcus aureus, Staph. aureus CH1, 1 strain
Pseudomas aeruginosa = assay: as above; assay type: cell-based; conditions: 5 strains
E. coli [2] = assay: In vitro antibacterial activity (MIC), compound I versus 1:1 combination with amoxicillin (Table 3); assay type: cell-based; conditions: Escherichia coli, 2 strains, average value, compound I alone
E. coli [3] = assay: Minimal inhibitory concentrations (MIC) against amoxicillin resistant bacteria (Table 1); assay type: cell-based; conditions: Escherichia coli, 6 strains
B-lactamases = assay: Stability to B-lactamases; assay type: in vitro ADME
Pseudomonas aeruginosa = assay: In vitro antibacterial activity (MIC), compound I versus 1:1 combination with amoxicillin (Table 3); assay type: cell-based; conditions: 5 strains, average value, compound I alone
Serratia marcescens [4] = assay: Minimal inhibitory concentrations (MIC) against amoxicillin resistant bacteria (Table 1); assay type: cell-based; conditions: 2 strains
Enterob. cloacee = assay: In vitro antibacterial activity (MIC), compound I versus 1:1 combination with amoxicillin (Table 3); assay type: cell-based; conditions: 2 strains, average value, compound I alone
Serratia marcescens [5] = assay: as above; assay type: cell-based; conditions: 2 strains, average value, compound I alone
Klebsiella pneumoniae = assay: as above; assay type: cell-based; conditions: 4 strains, average value, compound I alone
Proteus mirabilis = assay: Minimal inhibitory concentrations (MIC) against amoxicillin resistant bacteria (Table 1); assay type: cell-based; conditions: 3 strains
Staph. albus [6] = assay: In vitro antibacterial activity (MIC), compound I versus 1:1 combination with amoxicillin (Table 3); assay type: cell-based; conditions: 1 strain, compound I alone
Staph. albus [7] = assay: Minimal inhibitory concentrations (MIC) against amoxicillin resistant bacteria (Table 1); assay type: cell-based; conditions: 1 strain
Salmonella enteriditis = assay: In vitro antibacterial activity (MIC), compound I versus 1:1 combination with amoxicillin (Table 3); assay type: cell-based; conditions: 2 strains, average value, compound I alone
[8] = test system: B-lactamases from both Gram-positive and Gram-negative bacteria; assay: Inhibitory activity against B-lactamases; assay type: biochemical; conditions: dosage of 100 δ
Method: (§1) In order to further evaluate its therapeutic potentiality, compound I was tested for any inhibitory activity against B-lactamases.

Staph. aureus coag. pos. = assay: Minimal inhibitory concentrations (MIC) against amoxicillin resistant bacteria (Table 1); assay type: cell-based; conditions: Staphylococcus aureus, 4 strains
[9] = test system: ß-Lactamase isolated from: E. coli; assay: Inhibition of hydrolysis rates of ß-lactamases; assay type: biochemical
Method: as §1

[10] = test system: ß-Lactamase isolated from: B. cereus; assay: Inhibition of hydrolysis rates of ß-lactamases; assay type: biochemical
Method: as §1

[11] = test system: UR10(R446)xZM46 (plasmid R446, Inc M); assay: Inhibition of plasmid transfer by conjugation; assay type: cell-based, E. coli; conditions: Escherichia coli
Description: (§2) Another advantageous feature of compound I resides in its ability to inhibit the transfer of bacterial plasmids by conjugation, said ability being shared by other compounds of quinoline structure and being important since it interferes with transmission of bacterial resistance.
(§3) Phenotype symbols according Novick et al. (1976) were used.
(§4) The following antibiotics were used: streptomycin (Sm), tetracycline (Tc), ampicillin (Ap), kanamycin (Km) and rifampicin (Rif). Compound I in 1 and 10 mcg/ml concentrations was used in the transfer mixtures. • - Microorganisms were grown in Nutrient Broth (B.B.L.), NB, or in Nutrient Agar or Mc Conkey Agar (B.B.L.). Appropriate antibiotic concentrations were added to the selection plates. Sm 10, Tc 10, Ap 30, Km 30, Rif 100 and Nal 50. • - Bacterial strains were incubated till 2.5 x 10^8 cells/ml of nutrient broth exponential phase, and crossed in a donor/recipient 1:5 ratio in 2 x broth during 18 hours at 37°C. On the other hand, in the interrupted crosses, the bacteria were stirred by means of the Vortex apparatus for 1 minute after 1 h cross. • - About one hundred colonies, which could growth on the selection plates (containing the various antibiotics) were checked for the resistance spectrum by "replica plating". • - The transfer frequence was expressed as the number of resistent recipients in comparison with the number of donors in the mating mixtures, at the plating time. The inhibition rate of plasmid transfer was evaluated in tests in which, in the mating mixtures, compound I was present in 1 or 10 mcg/ml concentrations.
(§5) The activity of compound I was tested in different cross systems between E. coli x E. coli.

[12] = test system: CSH50(RP4)xZM46 (plasmid RP4, Inc P); assay: Inhibition of plasmid transfer by conjugation; assay type: cell-based, E. coli; conditions: Escherichia coli
Description: as §2, §3, §4, §5

[13] = test system: CSH28F'lacproxZM46 (plasmid F'lacpro, Inc FI); assay: Inhibition of plasmid transfer by conjugation; assay type: cell-based, E. coli; conditions: Escherichia coli
Description: as §2, §3, §4, §5

Staph. aureus = assay: In vitro antibacterial activity (MIC), compound I versus 1:1 combination with amoxicillin (Table 3); assay type: cell-based; conditions: Staphylococcus aureus, 8 strains, average value, compound I alone
[14] = test system: Gram-positive and Gram-negative strains resistant to amoxicillin alone; assay: MIC of amoxicillin alone against the resistant strains of Table 3; assay type: cell-based

Question: For `CCn1cc(C(=O)NC(C(=O)NC2C(=O)N3C2SC(C)(C)C3C(=O)O)c2ccc(O)cc2)c(=O)c2ccc(C)nc21` [Compound I, D-(-)-α-[(1-ethyl-1,4-dihydro-7-methyl-4-oxo-1,8-naphthyridine-3-carboxyamido)-α-(p-hydroxyphenyl)-acetamido]penicil lanic acid], which MIC (Citrob. freundii) is on record?
Answer: 100 mg/L

Question: What about the MIC (Proteus rettgeri) of the same compound?
Answer: 50 mg/L

Question: What about the “stability to tryptic enzymes (trypsin, pepsin, etc.)” value [1] of the same compound?
Answer: stable to tryptic enzymes

Question: What about the MIC (Staph. aureus CH1) of the same compound?
Answer: 1.56 mg/L (≈ 2.69 µM)

Question: What about the MIC (Pseudomas aeruginosa) of the same compound?
Answer: 50 mg/L (≈ 86.3 µM)

Question: And the MIC (E. coli [2])?
Answer: 75 mg/L

Question: And the MIC (E. coli [3])?
Answer: 25 mg/L (≈ 43.1 µM)

Question: And the “stability to B-lactamases” value (B-lactamases)?
Answer: stable to B-lactamases

Question: What about the MIC (Pseudomonas aeruginosa) of the same compound?
Answer: 50 mg/L

Question: What about the MIC (Serratia marcescens [4]) of the same compound?
Answer: 50 mg/L (≈ 86.3 µM)

Question: What about the MIC (Enterob. cloacee) of the same compound?
Answer: 100 mg/L

Question: What about the MIC (Serratia marcescens [5]) of the same compound?
Answer: 50 mg/L

Question: What about the MIC (Klebsiella pneumoniae) of the same compound?
Answer: 87.5 mg/L

Question: What about the MIC (Proteus mirabilis) of the same compound?
Answer: 25 mg/L (≈ 43.1 µM)

Question: What about the MIC (Staph. albus [6]) of the same compound?
Answer: 6.25 mg/L

Question: And the MIC (Staph. albus [7])?
Answer: 6.25 mg/L (≈ 10.8 µM)

Question: What about the MIC (Salmonella enteriditis) of the same compound?
Answer: 100 mg/L

Question: What about the “inhibition of enzymatic activity of B-lactamases” value [8] of the same compound?
Answer: completely inhibiting any enzymatic activity

Question: What about the MIC (Staph. aureus coag. pos.) of the same compound?
Answer: 3.12 mg/L (≈ 5.38 µM)

Question: And the “% inhibition” value ([9]; Conc. 50 γ/ml)?
Answer: 50%

Question: And the “% inhibition” value ([9]; Conc. 75 γ/ml)?
Answer: 90%

Question: What about the “% inhibition” value ([9]; Conc. 100 γ/ml) of the same compound?
Answer: 100%

Question: What about the “% inhibition” value ([10]; Conc. 50 γ/ml) of the same compound?
Answer: 50%

Question: What about the “% inhibition” value ([10]; Conc. 75 γ/ml) of the same compound?
Answer: 90%

Question: What about the “% inhibition” value ([10]; Conc. 100 γ/ml) of the same compound?
Answer: 100%

Question: And the inhibition at 1 µg/mL [11]?
Answer: 19.1%

Question: And the inhibition at 10 µg/mL [11]?
Answer: 74.5%

Question: What about the inhibition at 1 µg/mL [12] of the same compound?
Answer: 36.4%

Question: And the inhibition at 10 µg/mL [12]?
Answer: 66.2%

Question: And the inhibition at 1 µg/mL [13]?
Answer: 40.2%

Question: What about the inhibition at 10 µg/mL [13] of the same compound?
Answer: 69.7%

Question: What about the MIC (Staph. aureus) of the same compound?
Answer: 10.3 mg/L

Question: For `CC1(C)S[C@@H]2[C@H](NC(=O)[C@H](N)c3ccc(O)cc3)C(=O)N2[C@H]1C(=O)O` [amoxicillin], which MIC [14] is on record?
Answer: ≥ 800 mg/L
